This assay deals with Programmed cell death 1 ligand 1 (Homo sapiens) (UniProt Q9NZQ7). As to the kind of experiment: Inhibition of human PD-1/PDL1 protein-protein interaction by luminescence proximity homogeneous assay.

Each structure is given as a SMILES string.

Programmed cell death 1 ligand 1 (Homo sapiens), sequence (Q9NZQ7 whole entry, looked up): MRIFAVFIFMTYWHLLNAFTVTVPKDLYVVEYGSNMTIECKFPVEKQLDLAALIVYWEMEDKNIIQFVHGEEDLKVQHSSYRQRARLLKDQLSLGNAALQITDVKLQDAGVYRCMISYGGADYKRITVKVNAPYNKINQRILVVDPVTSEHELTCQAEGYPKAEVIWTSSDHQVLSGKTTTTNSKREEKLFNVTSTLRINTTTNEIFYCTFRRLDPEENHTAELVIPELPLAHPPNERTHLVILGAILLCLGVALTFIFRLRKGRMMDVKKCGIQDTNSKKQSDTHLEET

On to `Cc1c(COc2ccc(C[C@H](N)C(=O)O)cc2Br)cccc1-c1ccccc1`, for which the IC50 was determined as 1.5 µM.

A word on the IC50: it is the concentration needed to halve the response being measured. Low readings indicate inhibition by little substance, high ones a need for much substance.

These data come from BindingDB's records for PubMed 36126447 (Acharya & Bm Reddy College of Pharmacy, 2022).
